Data taken from US9492471B2, “Methods of treating a disease or disorder associated with Bruton'S Tyrosine Kinase” (Celgene Avilomics Research, Inc., priority 2013, dated 2016).
Read-outs that look alike come from different tables or passages of the source.

Tests used:
Assay in all cases: HotSpot kinase profiling
Type in all cases: biochemical
LRRK2 = target: T1, LRRK2 (Homo sapiens, UniProt Q5S007)
T1 construct: purchased Reaction Biology Corp
In short: (§1)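 P81 filtration radiometric readout; 2 h incubation at room temperature; 0.1% phosphoric acid wash; DMSO negative control; % inhibition, mean of replicate runs.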

BMPR2 = target: T2, BMPR2 (Homo sapiens, UniProt Q13873)
T2 construct: purchased Reaction Biology Corp
T2 sequence (Q13873 27-1038): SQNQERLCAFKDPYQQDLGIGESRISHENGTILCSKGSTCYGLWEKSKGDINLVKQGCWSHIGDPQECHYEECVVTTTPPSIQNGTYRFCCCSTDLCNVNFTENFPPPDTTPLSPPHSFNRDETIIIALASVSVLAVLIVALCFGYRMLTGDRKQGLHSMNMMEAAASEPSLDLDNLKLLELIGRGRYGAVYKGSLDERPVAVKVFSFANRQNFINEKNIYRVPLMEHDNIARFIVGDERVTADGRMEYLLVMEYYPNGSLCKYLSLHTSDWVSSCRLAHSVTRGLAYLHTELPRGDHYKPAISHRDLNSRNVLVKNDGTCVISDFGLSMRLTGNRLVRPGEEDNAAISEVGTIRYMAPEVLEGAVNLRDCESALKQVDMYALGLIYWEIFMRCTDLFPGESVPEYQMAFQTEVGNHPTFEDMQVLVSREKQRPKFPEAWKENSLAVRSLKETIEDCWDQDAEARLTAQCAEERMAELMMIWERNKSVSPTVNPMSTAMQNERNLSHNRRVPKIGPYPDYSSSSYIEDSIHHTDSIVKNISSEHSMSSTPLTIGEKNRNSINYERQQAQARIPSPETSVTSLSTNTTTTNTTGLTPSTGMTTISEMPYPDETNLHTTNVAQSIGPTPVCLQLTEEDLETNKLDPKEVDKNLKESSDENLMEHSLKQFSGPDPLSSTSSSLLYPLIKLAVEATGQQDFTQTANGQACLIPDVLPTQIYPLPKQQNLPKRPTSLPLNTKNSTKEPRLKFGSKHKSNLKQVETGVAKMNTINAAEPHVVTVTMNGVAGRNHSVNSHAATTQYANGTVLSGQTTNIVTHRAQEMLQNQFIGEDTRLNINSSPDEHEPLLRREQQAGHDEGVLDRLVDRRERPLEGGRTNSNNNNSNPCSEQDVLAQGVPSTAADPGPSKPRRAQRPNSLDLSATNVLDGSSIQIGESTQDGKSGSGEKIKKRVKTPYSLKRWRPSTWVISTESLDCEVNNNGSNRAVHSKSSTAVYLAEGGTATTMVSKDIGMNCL
In short: as §1

CLK1 = target: T3, CLK1 (Homo sapiens, UniProt P49759)
T3 construct: purchased Reaction Biology Corp
In short: as §1

STK32B/YANK2 = target: T4, STK32B/YANK2 (Homo sapiens, UniProt Q9NY57)
T4 construct: purchased Reaction Biology Corp
In short: as §1

P38d/MAPK13 = target: T5, P38d/MAPK13 (Homo sapiens, UniProt O15264)
T5 construct: purchased Reaction Biology Corp
T5 sequence (O15264 1-365): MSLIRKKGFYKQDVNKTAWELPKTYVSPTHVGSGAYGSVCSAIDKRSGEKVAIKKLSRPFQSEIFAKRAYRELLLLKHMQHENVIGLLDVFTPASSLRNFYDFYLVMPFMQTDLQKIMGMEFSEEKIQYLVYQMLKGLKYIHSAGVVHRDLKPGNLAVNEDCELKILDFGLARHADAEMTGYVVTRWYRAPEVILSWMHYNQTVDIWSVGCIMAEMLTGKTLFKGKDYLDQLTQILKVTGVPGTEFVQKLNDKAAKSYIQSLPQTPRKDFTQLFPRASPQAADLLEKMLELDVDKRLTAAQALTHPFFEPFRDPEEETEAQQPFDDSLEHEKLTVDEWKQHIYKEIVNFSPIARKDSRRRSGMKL
In short: as §1

CDK9/cyclin K = target: T6, CDK9/cyclin K (Homo sapiens, UniProt P50750)
T6 construct: purchased Reaction Biology Corp
In short: as §1

PLK1 = target: T7, PLK1 (Homo sapiens, UniProt P53350)
T7 construct: purchased Reaction Biology Corp
In short: as §1

c-Kit = target: T8, c-Kit (Homo sapiens, UniProt P10721)
T8 construct: purchased Reaction Biology Corp
In short: as §1

YES/YES1 = target: T9, YES/YES1 (Homo sapiens, UniProt P07947)
T9 construct: purchased Reaction Biology Corp
In short: as §1

[1] = read-out: % Enzyme Activity (relative to DMSO controls) Run 1
[2] = read-out: % Enzyme Activity (relative to DMSO controls) Run 2

T7 sequence (P53350 whole entry): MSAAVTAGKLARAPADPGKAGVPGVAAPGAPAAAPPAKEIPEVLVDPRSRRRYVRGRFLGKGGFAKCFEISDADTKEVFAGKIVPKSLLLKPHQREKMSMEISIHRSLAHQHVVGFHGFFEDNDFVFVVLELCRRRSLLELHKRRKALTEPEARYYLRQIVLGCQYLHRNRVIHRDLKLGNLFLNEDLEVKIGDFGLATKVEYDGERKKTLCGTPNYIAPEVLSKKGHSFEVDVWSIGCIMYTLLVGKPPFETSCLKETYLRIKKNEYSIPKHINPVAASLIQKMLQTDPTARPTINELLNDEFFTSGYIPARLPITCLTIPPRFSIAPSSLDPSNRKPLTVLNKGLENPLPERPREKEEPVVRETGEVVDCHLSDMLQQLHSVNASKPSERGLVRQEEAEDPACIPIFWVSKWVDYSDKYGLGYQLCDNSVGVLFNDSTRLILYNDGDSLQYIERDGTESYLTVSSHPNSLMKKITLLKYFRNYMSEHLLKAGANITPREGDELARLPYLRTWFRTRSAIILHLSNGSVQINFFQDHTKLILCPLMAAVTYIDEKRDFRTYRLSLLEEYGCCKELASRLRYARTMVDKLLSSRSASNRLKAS
T8 sequence (P10721 26-976): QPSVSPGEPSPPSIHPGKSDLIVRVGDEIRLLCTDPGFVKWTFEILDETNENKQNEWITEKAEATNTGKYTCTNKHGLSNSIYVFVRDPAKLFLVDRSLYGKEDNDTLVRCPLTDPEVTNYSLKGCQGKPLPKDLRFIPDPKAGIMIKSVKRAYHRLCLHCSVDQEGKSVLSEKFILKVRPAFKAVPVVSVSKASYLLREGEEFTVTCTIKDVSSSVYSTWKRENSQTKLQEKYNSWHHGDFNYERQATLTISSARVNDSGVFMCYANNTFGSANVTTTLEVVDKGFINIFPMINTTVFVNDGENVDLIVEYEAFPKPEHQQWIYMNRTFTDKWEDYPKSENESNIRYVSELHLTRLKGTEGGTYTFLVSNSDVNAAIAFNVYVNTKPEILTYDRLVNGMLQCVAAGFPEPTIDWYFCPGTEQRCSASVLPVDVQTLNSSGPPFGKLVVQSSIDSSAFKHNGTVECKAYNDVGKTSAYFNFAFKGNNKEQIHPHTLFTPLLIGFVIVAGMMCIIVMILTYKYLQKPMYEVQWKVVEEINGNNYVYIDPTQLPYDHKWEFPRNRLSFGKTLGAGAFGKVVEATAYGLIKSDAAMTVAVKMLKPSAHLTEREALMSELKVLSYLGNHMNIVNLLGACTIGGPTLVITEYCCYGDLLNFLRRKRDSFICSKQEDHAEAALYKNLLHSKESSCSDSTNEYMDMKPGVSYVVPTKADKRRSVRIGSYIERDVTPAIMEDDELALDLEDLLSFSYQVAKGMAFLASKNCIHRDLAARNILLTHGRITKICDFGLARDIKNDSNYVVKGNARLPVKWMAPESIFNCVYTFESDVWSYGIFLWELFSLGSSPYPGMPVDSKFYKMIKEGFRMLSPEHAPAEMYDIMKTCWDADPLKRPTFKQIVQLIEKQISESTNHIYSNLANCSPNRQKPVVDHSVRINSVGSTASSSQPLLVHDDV
T6 sequence (P50750 whole entry): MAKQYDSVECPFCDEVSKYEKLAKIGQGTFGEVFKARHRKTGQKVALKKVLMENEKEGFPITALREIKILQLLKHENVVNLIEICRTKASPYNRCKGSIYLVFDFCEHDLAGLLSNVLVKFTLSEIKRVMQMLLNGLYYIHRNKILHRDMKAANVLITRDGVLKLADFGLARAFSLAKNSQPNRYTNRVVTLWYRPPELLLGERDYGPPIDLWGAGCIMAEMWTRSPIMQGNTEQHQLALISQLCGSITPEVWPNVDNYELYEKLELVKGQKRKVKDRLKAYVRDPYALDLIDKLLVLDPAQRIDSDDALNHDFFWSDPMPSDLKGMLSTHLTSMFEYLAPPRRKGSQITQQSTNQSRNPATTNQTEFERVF
T6 sequence (O75909 whole entry partner): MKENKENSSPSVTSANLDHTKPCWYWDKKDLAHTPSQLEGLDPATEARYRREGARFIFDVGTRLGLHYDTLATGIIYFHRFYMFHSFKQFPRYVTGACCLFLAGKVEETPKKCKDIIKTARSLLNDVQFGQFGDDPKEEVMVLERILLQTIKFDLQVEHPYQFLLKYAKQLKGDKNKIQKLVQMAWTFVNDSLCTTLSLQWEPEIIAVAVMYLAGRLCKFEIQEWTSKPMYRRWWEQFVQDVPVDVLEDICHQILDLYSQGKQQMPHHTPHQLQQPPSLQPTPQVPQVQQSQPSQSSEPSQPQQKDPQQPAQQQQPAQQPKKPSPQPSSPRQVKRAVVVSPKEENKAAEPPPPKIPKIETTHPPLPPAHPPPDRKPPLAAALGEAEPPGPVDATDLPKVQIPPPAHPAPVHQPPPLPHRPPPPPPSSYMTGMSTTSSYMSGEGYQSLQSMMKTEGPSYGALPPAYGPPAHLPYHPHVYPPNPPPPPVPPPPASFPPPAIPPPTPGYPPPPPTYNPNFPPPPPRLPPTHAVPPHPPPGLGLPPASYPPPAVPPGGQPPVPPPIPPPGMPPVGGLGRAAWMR
T9 sequence (P07947 whole entry): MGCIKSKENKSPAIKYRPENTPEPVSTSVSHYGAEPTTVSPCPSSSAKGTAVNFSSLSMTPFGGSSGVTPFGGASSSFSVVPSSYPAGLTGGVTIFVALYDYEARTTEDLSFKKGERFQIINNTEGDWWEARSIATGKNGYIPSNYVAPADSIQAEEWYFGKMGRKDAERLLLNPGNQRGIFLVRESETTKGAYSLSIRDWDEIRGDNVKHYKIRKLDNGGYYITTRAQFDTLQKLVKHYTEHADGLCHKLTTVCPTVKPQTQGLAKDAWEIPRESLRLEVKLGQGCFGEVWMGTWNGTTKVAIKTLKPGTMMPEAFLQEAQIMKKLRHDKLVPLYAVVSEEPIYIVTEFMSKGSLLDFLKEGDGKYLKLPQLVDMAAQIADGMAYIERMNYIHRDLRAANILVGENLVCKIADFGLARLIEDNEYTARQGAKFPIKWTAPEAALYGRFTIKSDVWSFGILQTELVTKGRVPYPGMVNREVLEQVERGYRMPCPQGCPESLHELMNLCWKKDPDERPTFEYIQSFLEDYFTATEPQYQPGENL
T3 sequence (P49759 whole entry): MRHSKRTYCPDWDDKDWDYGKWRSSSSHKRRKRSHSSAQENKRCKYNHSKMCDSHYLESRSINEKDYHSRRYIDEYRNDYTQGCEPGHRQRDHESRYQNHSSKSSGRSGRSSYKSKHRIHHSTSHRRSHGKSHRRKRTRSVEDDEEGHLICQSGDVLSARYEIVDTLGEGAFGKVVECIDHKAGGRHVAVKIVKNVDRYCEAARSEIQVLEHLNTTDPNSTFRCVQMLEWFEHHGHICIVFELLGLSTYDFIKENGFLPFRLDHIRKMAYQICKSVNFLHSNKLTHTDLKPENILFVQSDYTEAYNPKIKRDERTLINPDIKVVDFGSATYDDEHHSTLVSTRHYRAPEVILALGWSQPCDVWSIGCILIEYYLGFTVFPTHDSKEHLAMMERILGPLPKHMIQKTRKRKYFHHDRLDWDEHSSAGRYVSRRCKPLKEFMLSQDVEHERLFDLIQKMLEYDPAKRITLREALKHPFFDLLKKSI
T4 sequence (Q9NY57 whole entry): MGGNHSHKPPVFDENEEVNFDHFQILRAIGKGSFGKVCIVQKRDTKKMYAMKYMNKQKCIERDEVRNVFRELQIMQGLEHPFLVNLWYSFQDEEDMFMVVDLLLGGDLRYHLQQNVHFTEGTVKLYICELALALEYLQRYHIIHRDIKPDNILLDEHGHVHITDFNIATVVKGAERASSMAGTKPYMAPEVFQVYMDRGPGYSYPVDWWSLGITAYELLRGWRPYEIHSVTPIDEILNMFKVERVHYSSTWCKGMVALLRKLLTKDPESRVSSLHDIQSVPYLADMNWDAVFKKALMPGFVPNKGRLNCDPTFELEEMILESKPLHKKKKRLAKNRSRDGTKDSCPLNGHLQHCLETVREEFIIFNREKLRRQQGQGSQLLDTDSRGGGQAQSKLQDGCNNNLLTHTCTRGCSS

`C=CC(=O)Nc1cccc(Nc2nc(Nc3ccc(OCCOC)c(F)c3)ncc2F)c1` [Compound 2] showed an inhibition at 3 µM (LRRK2) of 65.9%, a remaining activity at 3 µM (LRRK2; [1]) of 33% and a remaining activity at 3 µM (LRRK2; [2]) of 35.1%. For the same compound, the inhibition at 3 µM (BMPR2) was 16.2%, the remaining activity at 3 µM (BMPR2; [1]) was 83.8% and the remaining activity at 3 µM (BMPR2; [2]) was 83.8%. For the same compound, the inhibition at 3 µM (CLK1) was 24.1%, the remaining activity at 3 µM (CLK1; [1]) was 74.4% and the remaining activity at 3 µM (CLK1; [2]) was 77.4%. For the same compound, the inhibition at 3 µM (STK32B/YANK2) was 5.3%, the remaining activity at 3 µM (STK32B/YANK2; [1]) was 95.8% and the remaining activity at 3 µM (STK32B/YANK2; [2]) was 93.6%. For the same compound, the inhibition at 3 µM (P38d/MAPK13) was 0.64%, the remaining activity at 3 µM (P38d/MAPK13; [1]) was 98.9% and the remaining activity at 3 µM (P38d/MAPK13; [2]) was 99.8%. The inhibition at 3 µM (CDK9/cyclin K) was 18.1%, the remaining activity at 3 µM (CDK9/cyclin K; [1]) was 81.7% and the remaining activity at 3 µM (CDK9/cyclin K; [2]) was 82.2%. The inhibition at 3 µM (PLK1) was 8.06%, the remaining activity at 3 µM (PLK1; [1]) was 91.1% and the remaining activity at 3 µM (PLK1; [2]) was 92.8%. For the same compound, the inhibition at 3 µM (c-Kit) was 21.5%, the remaining activity at 3 µM (c-Kit; [1]) was 77.5% and the remaining activity at 3 µM (c-Kit; [2]) was 79.5%. For the same compound, the inhibition at 3 µM (YES/YES1) was 81.5%, the remaining activity at 3 µM (YES/YES1; [1]) was 18.7% and the remaining activity at 3 µM (YES/YES1; [2]) was 18.3%.
